The record followed here is patent publication US4696933A, “Guanidine compounds useful as histamine H2-antagonists” (ICI Americas Inc., priority 1981, dated 1987).

A short description of series [1]: intravenous toxicity in anaesthetised rats. The format is in vivo. The settings on record: two anaesthetised rats, ten times the dose giving approximate 50% inhibition of gastric secretion in the anaesthetised rat. As to the method: (§1) No overt toxicity or side effects were noted during the rat or dog tests. The compound 5-[4-(2-allylguanidino)-1,2,3-triazol-2-yl]valeramide was administered intravenously to groups of two anaesthetised rats and four conscious mice at doses which were respectively ten times and one hundred times the dose, in mg/kg., which produced an approximate 50% inhibition of gastric secretion in the anaesthetised rat.

The nature of series [2]: intravenous toxicity in conscious mice. The format is in vivo. The settings on record: four conscious mice, one hundred times the dose giving approximate 50% inhibition of gastric secretion in the anaesthetised rat. How it is done:
as §1

On to `C=CCN=C(N)Nc1cnn(CCCCC(N)=O)n1.O=C(O)/C=C\C(=O)O` [Example 8, 5-(4-[2-allylguanidino]-1,2,3-triazol-2-yl)valeramide maleate], for which the toxic symptoms entry in series [1] and in series [2] was “No toxic symptoms were noted” throughout.
